Patent US6599937B1, “Unsaturated oxyalkylene esters and uses thereof” (Beacon Laboratories, Inc., priority 1997, dated 2003)
Like-named read-outs stand apart in the source and are kept apart here. Blank lines part the entries; values can stand above or below the molecule they belong to.

Legend:
SF-295 = experiment: SRB assay, inhibition of cancer cell proliferation, SF-295; type: cell-based
Procedure: (§1) The inhibition of cell proliferation was measured in the indicated cancer cell lines using the sulforhodamine B (SRB) assay as described by Monks et al., 1991, J. Natl. Can. Inst. 83:757-766. The SRB assay is used to screen for anti-cancer drugs. […] The table provides the dosage of each compound (in mM) which inhibited fifty percent (IC50) or ninety percent (IC90) of proliferation when calculated using the Chou Analysis' Median Effective Dose equation.

PC-3 = experiment: SRB assay, inhibition of cancer cell proliferation, PC-3; type: cell-based, human
Procedure: as §1

NCI-H522 = experiment: SRB assay, inhibition of cancer cell proliferation, NCI-H522; type: cell-based
Procedure: as §1

OVCAR-5 = experiment: SRB assay, inhibition of cancer cell proliferation, OVCAR-5; type: cell-based
Procedure: as §1

CFPAC = experiment: SRB assay, inhibition of cancer cell proliferation, CFPAC; type: cell-based
Procedure: as §1

LOX IMVI = experiment: SRB assay, inhibition of cancer cell proliferation, LOX IMVI; type: cell-based
Procedure: as §1

HT29 = experiment: SRB assay, inhibition of cancer cell proliferation, HT29; type: cell-based
Procedure: as §1

HL-60 = experiment: SRB assay, inhibition of cancer cell proliferation, HL-60; type: cell-based, human
Procedure: (§2) Human promyelocytic leukemia cells (HL-60), human pancreatic carcinoma cells (PaCa-2) and human breast adenocarcinoma cells, pleural effusion cells (MCF-7) can be cultured as follows. Cells are grown in RPMI media with 10% FCS, supplemented with 2 mM glutamine and incubated at 37° C. in a humidified 5% CO2 incubator. Alternatively, cells can be grown in any other appropriate growth medium and conditions which supports the growth of the cell line under investigation. Viability can be determined by trypan blue exclusion. Cells are exposed to a test compound, cultures are harvested at various time points following treatment and stained with trypan blue. The inhibition of cell proliferation was measured in the indicated cancer cell lines using the sulforhodamine B (SRB) assay as described by Monks et al., 1991, J. Natl. Can. Inst. 83:757-766. The SRB assay is used to screen for anti-cancer drugs. […] The table provides the dosage of each compound (in mM) which inhibited fifty percent (IC50) or ninety percent (IC90) of proliferation when calculated using the Chou Analysis' Median Effective Dose equation.

NCI-H23 = experiment: SRB assay, inhibition of cancer cell proliferation, NCI-H23; type: cell-based
Procedure: as §1

MCF7 = experiment: SRB assay, inhibition of cancer cell proliferation, MCF7; type: cell-based, human
Procedure: as §2

HL-60 cells = HL-60 cells cultured 3 days
Procedure: Cancer cell differentiation was evaluated in a human leukemia cell line by changes in expression of myelocytic maturation marker CD11b. The level of CD11b was measured on HL-60 cells by flow cytometry using a monoclonal antibody (MAb) against CD11b in a standard indirect immunofluorescence assay. Cells were cultured for 3 days with media or the indicated concentration of DiMeOCOMB. Cultured cells were collected by centrifugation, resuspended at 10^6 cells per 20μ RPMI+10% FCS and incubated with MAb for 30 min at […]. The cells were washed twice in cold PBS+[…] FCS and incubated with a 1:20 dilution of FITC-conjugated F(ab′)^2 fragment of rabbit anti-mouse IgG for 20-30 min at […]. in the dark. After washing the cells twice in cold PBS+10% FCS, the flow cytometry was performed.

[1] = Homo sapiens, SF-295 cell line, SRB assay, Chou Median Effective Dose equation, read-out: IC50
[2] = Homo sapiens, SF-295 cell line, SRB assay, Chou Median Effective Dose equation, read-out: IC90
[3] = Homo sapiens, PC-3 cell line, SRB assay, Chou Median Effective Dose equation, read-out: IC50
[4] = Homo sapiens, PC-3 cell line, SRB assay, Chou Median Effective Dose equation, read-out: IC90
[5] = Homo sapiens, NCI-H522 cell line, SRB assay, Chou Median Effective Dose equation, read-out: IC50
[6] = Homo sapiens, NCI-H522 cell line, SRB assay, Chou Median Effective Dose equation, read-out: IC90
[7] = Homo sapiens, OVCAR-5 cell line, SRB assay, Chou Median Effective Dose equation, read-out: IC50
[8] = Homo sapiens, OVCAR-5 cell line, SRB assay, Chou Median Effective Dose equation, read-out: IC90
[9] = CFPAC cell line, SRB assay, Chou Median Effective Dose equation, read-out: IC50
[10] = CFPAC cell line, SRB assay, Chou Median Effective Dose equation, read-out: IC90
[11] = Homo sapiens, LOX IMVI cell line, SRB assay, Chou Median Effective Dose equation, read-out: IC50
[12] = Homo sapiens, LOX IMVI cell line, SRB assay, Chou Median Effective Dose equation, read-out: IC90
[13] = Homo sapiens, HT-29, HT29 cell line, SRB assay, Chou Median Effective Dose equation, read-out: IC50
[14] = Homo sapiens, HT-29, HT29 cell line, SRB assay, Chou Median Effective Dose equation, read-out: IC90
[15] = Homo sapiens, HL-60 cell line, SRB assay, Chou Median Effective Dose equation, read-out: IC50
[16] = Homo sapiens, HL-60 cell line, SRB assay, Chou Median Effective Dose equation, read-out: IC90
[17] = Homo sapiens, NCI-H23 cell line, SRB assay, Chou Median Effective Dose equation, read-out: IC50
[18] = Homo sapiens, NCI-H23 cell line, SRB assay, Chou Median Effective Dose equation, read-out: IC90
[19] = Homo sapiens, MCF7 cell line, SRB assay, Chou Median Effective Dose equation, read-out: IC50
[20] = Homo sapiens, MCF7 cell line, SRB assay, Chou Median Effective Dose equation, read-out: IC90

IC50 (SF-295; [1]): 0.197 mM | IC90 (SF-295; [2]): > 4 mM | IC50 (PC-3; [3]): 0.203 mM | IC90 (PC-3; [4]): > 4 mM | IC50 (NCI-H522; [5]): 0.189 mM | IC90 (NCI-H522; [6]): 0.249 mM | IC50 (OVCAR-5; [7]): 0.367 mM | IC90 (OVCAR-5; [8]): 0.5 mM | IC50 (CFPAC; [9]): 0.15 mM | IC90 (CFPAC; [10]): 0.237 mM | IC50 (LOX IMVI; [11]): 0.197 mM | IC90 (LOX IMVI; [12]): 1.91 mM | IC50 (HT29; [13]): 0.349 mM | IC90 (HT29; [14]): 0.492 mM | IC50 (HL-60; [15]): 0.443 mM | IC90 (HL-60; [16]): > 4 mM | IC50 (NCI-H23; [17]): 0.182 mM | IC90 (NCI-H23; [18]): 0.249 mM | IC50 (MCF7; [19]): 0.196 mM | IC90 (MCF7; [20]): > 4 mM
SMILES: CCCC(=O)OCOC(=O)C=Cc1ccccc1 [COMB, Cinnamoyloxymethyl Butyrate]

IC50 (SF-295; SF-295 cell line, SRB assay, Chou Median Effective Dose equation, read-out: IC50): 0.764 mM | IC90 (SF-295; SF-295 cell line, SRB assay, Chou Median Effective Dose equation, read-out: IC90): 0.977 mM | IC50 (PC-3; PC-3 cell line, SRB assay, Chou Median Effective Dose equation, read-out: IC50): 1.44 mM | IC90 (PC-3; PC-3 cell line, SRB assay, Chou Median Effective Dose equation, read-out: IC90): 1.87 mM | IC50 (NCI-H522; NCI-H522 cell line, SRB assay, Chou Median Effective Dose equation, read-out: IC50): 0.752 mM | IC90 (NCI-H522; NCI-H522 cell line, SRB assay, Chou Median Effective Dose equation, read-out: IC90): 1.37 mM | IC50 (OVCAR-5; OVCAR-5 cell line, SRB assay, Chou Median Effective Dose equation, read-out: IC50): 1.46 mM | IC90 (OVCAR-5; OVCAR-5 cell line, SRB assay, Chou Median Effective Dose equation, read-out: IC90): 1.89 mM | IC50 (CFPAC; [9]): 0.308 mM | IC90 (CFPAC; [10]): 3.57 mM | IC50 (LOX IMVI; LOX IMVI cell line, SRB assay, Chou Median Effective Dose equation, read-out: IC50): 0.772 mM | IC90 (LOX IMVI; LOX IMVI cell line, SRB assay, Chou Median Effective Dose equation, read-out: IC90): 0.978 mM | IC50 (HT29; HT29 cell line, SRB assay, Chou Median Effective Dose equation, read-out: IC50): 0.406 mM | IC90 (HT29; HT29 cell line, SRB assay, Chou Median Effective Dose equation, read-out: IC90): 0.798 mM | IC50 (HL-60; HL-60 cell line, SRB assay, Chou Median Effective Dose equation, read-out: IC50): 0.203 mM | IC90 (HL-60; HL-60 cell line, SRB assay, Chou Median Effective Dose equation, read-out: IC90): 0.248 mM | IC50 (NCI-H23; NCI-H23 cell line, SRB assay, Chou Median Effective Dose equation, read-out: IC50): 0.785 mM | IC90 (NCI-H23; NCI-H23 cell line, SRB assay, Chou Median Effective Dose equation, read-out: IC90): > 4 mM | IC50 (MCF7; MCF7 cell line, SRB assay, Chou Median Effective Dose equation, read-out: IC50): 0.301 mM | IC90 (MCF7; MCF7 cell line, SRB assay, Chou Median Effective Dose equation, read-out: IC90): 0.466 mM
SMILES: CCCC(=O)OCOC(=O)C=Cc1ccc(OC)c(OC)c1 [DiMeOCOMB, 3,4-Dimethyoxycinnamoyloxymethyl Butyrate]
% CD11b Cells (HL-60 cells; concentration 50 μM (media control 12.2)): 87.5% | % CD11b Cells (HL-60 cells; concentration 100 μM (media control 12.2)): 88.6% | % CD11b Cells (HL-60 cells; concentration 203 μM (media control 12.2)): 90.4%

IC50 (SF-295; [1]): > 4 mM | IC90 (SF-295; [2]): > 4 mM | IC50 (PC-3; [3]): > 4 mM | IC90 (PC-3; [4]): > 4 mM | IC50 (NCI-H522; [5]): 1.98 mM | IC90 (NCI-H522; [6]): 3.82 mM | IC50 (OVCAR-5; [7]): 3.73 mM | IC90 (OVCAR-5; [8]): > 4 mM | IC50 (CFPAC; [9]): 1.94 mM | IC90 (CFPAC; [10]): > 4 mM | IC50 (LOX IMVI; [11]): 3.36 mM | IC90 (LOX IMVI; [12]): > 4 mM | IC50 (HT29; [13]): 3.96 mM | IC90 (HT29; [14]): > 4 mM | IC50 (HL-60; [15]): 2.6 mM | IC90 (HL-60; [16]): > 4 mM | IC50 (NCI-H23; [17]): 3.27 mM | IC90 (NCI-H23; [18]): > 4 mM | IC50 (MCF7; [19]): > 4 mM | IC90 (MCF7; [20]): > 4 mM
SMILES: CC(=Cc1ccccc1)C(=O)O [MeCA, α-methylcinnamic acid, reference compound]

SMILES: CC(Cc1ccccc1)C(=O)O (centres unmarked) [MePPA, 2-methyl-3-phenylpropionic acid, reference compound]
IC50 (SF-295; Homo sapiens, SF-295): > 4 mM | IC90 (SF-295; Homo sapiens, SF-295): > 4 mM | IC50 (PC-3; Homo sapiens, PC-3): > 4 mM | IC90 (PC-3; Homo sapiens, PC-3): > 4 mM | IC50 (NCI-H522; Homo sapiens, NCI-H522): > 4 mM | IC90 (NCI-H522; Homo sapiens, NCI-H522): > 4 mM | IC50 (OVCAR-5; Homo sapiens, OVCAR-5): > 4 mM | IC90 (OVCAR-5; Homo sapiens, OVCAR-5): > 4 mM | IC50 (CFPAC): 3.54 mM | IC90 (CFPAC): > 4 mM | IC50 (LOX IMVI; Homo sapiens, LOX IMVI): > 4 mM | IC90 (LOX IMVI; Homo sapiens, LOX IMVI): > 4 mM | IC50 (HT29; Homo sapiens, HT-29): > 4 mM | IC90 (HT29; Homo sapiens, HT-29): > 4 mM | IC50 (HL-60; Homo sapiens, HL-60): > 4 mM | IC90 (HL-60; Homo sapiens, HL-60): > 4 mM | IC50 (NCI-H23; Homo sapiens, NCI-H23): > 4 mM | IC90 (NCI-H23; Homo sapiens, NCI-H23): > 4 mM | IC50 (MCF7; Homo sapiens, MCF7): > 4 mM | IC90 (MCF7; Homo sapiens, MCF7): > 4 mM
